Test results from patent US6914045B2, “Glycopeptide antibiotics” (Wyeth Holdings Corporation, priority 2001, dated 2005).
Converted amounts (≈) assume the structure as drawn.

Legend:
Assay in all cases: in vitro antibacterial evaluation, MIC by broth dilution
Assay type in all cases: cell-based
Enterococcus sp. = conditions: broth dilution, 18 hours at 35° C.
Description: (§1) Methods for in vitro Antibacterial Evaluation (Table 1)
(§2) The minimum inhibitory concentration (MIC), the lowest concentration of the antibiotic which inhibits growth of the test organism, is determined by the broth dilution method using Muller-Hinton II […] (Baltimore Biological Laboratories) following the recommendations of the National Committee for Clinical Laboratory Standards [Methods for dilution antimicrobial susceptibility tests for bacteria that grow aerobically, approved standard M7-A2, National Committee for Clinical Laboratory Standards, Villanova, Pa.].
(§3) An inoculum level of 5×10^5 CFU/mL, and a range of antibiotic concentrations (64-0.06 μg/mL) is used. […] The test organisms include a spectrum of Gram-positive bacteria comprised of Staphylococcus sp., Streptococcus sp. and Enterococcus sp. These organisms include recent clinical isolates that are resistant to methicillin, penicillin and/or vancomycin.

Streptococcus sp. = conditions: broth dilution, 18 hours at 35° C.
Description: as §1, §2, §3

Staphylococcus sp. = conditions: broth dilution, 18 hours at 35° C.; for MIC Staphylococcus aureus (GC 1131): strain GC 1131
Description: as §1, §2, §3

Escherichia coli = conditions: 18 hours at 35° C.

SMILES: CC(c1ccccc1)C1NC(=O)CNC(=O)C(CO)NC(=O)C(C(O)C2CNC(=N)N2C2OC(CO)C(O)C(O)C2O)NC(=O)C(C(O)C2CNC(=N)N2)NC(=O)C(Cc2ccc(OC3OC(CO)C(OC4OC5COC(c6ccc(C(=O)c7cc(I)c(I)c(I)c7)cc6)OC5C(O)C4O)C(O)C3O)cc2)NC1=O (centres unmarked) [Example 187]
- MIC Enterococcus avium (GC 4558) (Enterococcus sp.): 16 µg/mL (≈ 8.58 µM)
- MIC Enterococcus faecalis (ATCC 29212) (Enterococcus sp.): 64 µg/mL (≈ 34.3 µM)
- MIC Enterococcus faecalis (GC 2242) (Enterococcus sp.): 64 µg/mL (≈ 34.3 µM)
- MIC Enterococcus faecalis (GC 2691) (Enterococcus sp.): 16 µg/mL (≈ 8.58 µM)
- MIC Enterococcus faecalis (GC 3059) (Enterococcus sp.): 128 µg/mL (≈ 68.6 µM)
- MIC Enterococcus faecalis (GC 4552) (Enterococcus sp.): 64 µg/mL (≈ 34.3 µM)
- MIC Enterococcus faecalis (GC 4553) (Enterococcus sp.): 32 µg/mL (≈ 17.2 µM)
- MIC Enterococcus faecalis (GC 4554) (Enterococcus sp.): 64 µg/mL (≈ 34.3 µM)
- MIC Enterococcus faecalis (GC 6189) (Enterococcus sp.): 16 µg/mL (≈ 8.58 µM)
- MIC Enterococcus faecium (GC 2243) (Enterococcus sp.): 16 µg/mL (≈ 8.58 µM)
- MIC Enterococcus faecium (GC 4556) (Enterococcus sp.): 128 µg/mL (≈ 68.6 µM)
- MIC Enterococcus faecium (GC 4557) (Enterococcus sp.): 16 µg/mL (≈ 8.58 µM)
- MIC Enterococcus faecalis (ATCC 29212) (Enterococcus sp.; inoculum 5×10^5 CFU/mL, strain ATCC 29212): 64 µg/mL (≈ 34.3 µM)
- MIC Enterococcus faecalis (GC 2242) (Enterococcus sp.; inoculum 5×10^5 CFU/mL, strain GC 2242): 64 µg/mL (≈ 34.3 µM)
- MIC Enterococcus faecium (GC 2243) (Enterococcus sp.; inoculum 5×10^5 CFU/mL, strain GC 2243): 16 µg/mL (≈ 8.58 µM)
- MIC Enterococcus faecalis (GC 2691) (Enterococcus sp.; inoculum 5×10^5 CFU/mL, strain GC 2691): 16 µg/mL (≈ 8.58 µM)
- MIC Enterococcus faecalis (GC 3059) (Enterococcus sp.; inoculum 5×10^5 CFU/mL, strain GC 3059): 128 µg/mL (≈ 68.6 µM)
- MIC Enterococcus faecalis (GC 4552) (Enterococcus sp.; inoculum 5×10^5 CFU/mL, strain GC 4552): 64 µg/mL (≈ 34.3 µM)
- MIC Enterococcus faecalis (GC 4553) (Enterococcus sp.; inoculum 5×10^5 CFU/mL, strain GC 4553): 32 µg/mL (≈ 17.2 µM)
- MIC Enterococcus faecalis (GC 4554) (Enterococcus sp.; inoculum 5×10^5 CFU/mL, strain GC 4554): 64 µg/mL (≈ 34.3 µM)
- MIC Enterococcus faecium (GC 4556) (Enterococcus sp.; inoculum 5×10^5 CFU/mL, strain GC 4556): 128 µg/mL (≈ 68.6 µM)
- MIC Enterococcus faecium (GC 4557) (Enterococcus sp.; inoculum 5×10^5 CFU/mL, strain GC 4557): 16 µg/mL (≈ 8.58 µM)
- MIC Enterococcus avium (GC 4558) (Enterococcus sp.; inoculum 5×10^5 CFU/mL, strain GC 4558): 16 µg/mL (≈ 8.58 µM)
- MIC Enterococcus faecalis (GC 6189) (Enterococcus sp.; inoculum 5×10^5 CFU/mL, strain GC 6189): 16 µg/mL (≈ 8.58 µM)
- MIC Streptococcus agalactiae (GC 4564) (Streptococcus sp.): <0.12 µg/mL
- MIC Streptococcus pneumoniae (ATCC 6301) (Streptococcus sp.): <0.12 µg/mL
- MIC Streptococcus pneumoniae (GC 1894) (Streptococcus sp.): <0.12 µg/mL
- MIC Streptococcus pneumoniae (GC 4565) (Streptococcus sp.): <0.12 µg/mL
- MIC Streptococcus pyogenes (GC 4563) (Streptococcus sp.): 0.5 µg/mL (≈ 0.268 µM)
- MIC Streptococcus pneumoniae (ATCC 6301) (Streptococcus sp.; inoculum 5×10^5 CFU/mL, strain ATCC 6301): <0.12 µg/mL
- MIC Streptococcus pneumoniae (GC 1894) (Streptococcus sp.; inoculum 5×10^5 CFU/mL, strain GC 1894): <0.12 µg/mL
- MIC Streptococcus pyogenes (GC 4563) (Streptococcus sp.; inoculum 5×10^5 CFU/mL, strain GC 4563): 0.5 µg/mL (≈ 0.268 µM)
- MIC Streptococcus agalactiae (GC 4564) (Streptococcus sp.; inoculum 5×10^5 CFU/mL, strain GC 4564): <0.12 µg/mL
- MIC Streptococcus pneumoniae (GC 4565) (Streptococcus sp.; inoculum 5×10^5 CFU/mL, strain GC 4565): <0.12 µg/mL
- MIC Staphylococcus aureus (GC 1131) (Staphylococcus sp.; inoculum 5×10^5 CFU/mL): 64 µg/mL (≈ 34.3 µM)
- MIC Staphylococcus aureus (ATCC 29213) (Staphylococcus sp.; strain ATCC 29213): 64 µg/mL (≈ 34.3 µM)
- MIC Staphylococcus aureus (GC 1131) (Staphylococcus sp.): 64 µg/mL (≈ 34.3 µM)
- MIC Staphylococcus aureus (GC 3051) (Staphylococcus sp.; strain GC 3051): 64 µg/mL (≈ 34.3 µM)
- MIC Staphylococcus aureus (GC 3053) (Staphylococcus sp.; strain GC 3053): 32 µg/mL (≈ 17.2 µM)
- MIC Staphylococcus aureus (GC 4541) (Staphylococcus sp.; strain GC 4541): 64 µg/mL (≈ 34.3 µM)
- MIC Staphylococcus aureus (GC 4542) (Staphylococcus sp.; strain GC 4542): 64 µg/mL (≈ 34.3 µM)
- MIC Staphylococcus aureus-SMITH (GC 4543) (Staphylococcus sp.; strain GC 4543): 64 µg/mL (≈ 34.3 µM)
- MIC Staphylococcus aureus (GC 4544) (Staphylococcus sp.; strain GC 4544): 64 µg/mL (≈ 34.3 µM)
- MIC Staphylococcus aureus (GC 4545) (Staphylococcus sp.; strain GC 4545): 64 µg/mL (≈ 34.3 µM)
- MIC Staphylococcus haemolyticus (GC 4546) (Staphylococcus sp.; strain GC 4546): 128 µg/mL (≈ 68.6 µM)
- MIC Coagulase Negative Staphylococcus (GC 4547) (Staphylococcus sp.; strain GC 4547): 128 µg/mL (≈ 68.6 µM)
- MIC Coagulase Negative Staphylococcus (GC 4548) (Staphylococcus sp.; strain GC 4548): 16 µg/mL (≈ 8.58 µM)
- MIC Coagulase Negative Staphylococcus (GC 4549) (Staphylococcus sp.; strain GC 4549): 64 µg/mL (≈ 34.3 µM)
- MIC Coagulase Negative Staphylococcus (GC 4551) (Staphylococcus sp.; strain GC 4551): 32 µg/mL (≈ 17.2 µM)
- MIC Coagulase Negative Staphylococcus (GC 6257) (Staphylococcus sp.; strain GC 6257): 32 µg/mL (≈ 17.2 µM)
- MIC Escherichia coli (ATCC 25922) (Escherichia coli): >128 µg/mL
- MIC Escherichia coli (GC 4559) (Escherichia coli): >128 µg/mL
- MIC Escherichia coli (GC 4560) (Escherichia coli): 128 µg/mL (≈ 68.6 µM)
